Experimental findings from patent publication US20250100995A1, “CEREBLON BINDING COMPOUNDS, COMPOSITIONS THEREOF, AND METHODS OF TREATMENT THEREWITH” (CELGENE CORPORATION, priority 2021, published 2025) are described below.

Structures can show the parent of a compound that is named as a salt.

In the test the target is T1, AR (Homo sapiens, UniProt P10275).
T1 construct: endogenous in cells; host or cells: VCaP cells
T1 sequence (P10275 1-920): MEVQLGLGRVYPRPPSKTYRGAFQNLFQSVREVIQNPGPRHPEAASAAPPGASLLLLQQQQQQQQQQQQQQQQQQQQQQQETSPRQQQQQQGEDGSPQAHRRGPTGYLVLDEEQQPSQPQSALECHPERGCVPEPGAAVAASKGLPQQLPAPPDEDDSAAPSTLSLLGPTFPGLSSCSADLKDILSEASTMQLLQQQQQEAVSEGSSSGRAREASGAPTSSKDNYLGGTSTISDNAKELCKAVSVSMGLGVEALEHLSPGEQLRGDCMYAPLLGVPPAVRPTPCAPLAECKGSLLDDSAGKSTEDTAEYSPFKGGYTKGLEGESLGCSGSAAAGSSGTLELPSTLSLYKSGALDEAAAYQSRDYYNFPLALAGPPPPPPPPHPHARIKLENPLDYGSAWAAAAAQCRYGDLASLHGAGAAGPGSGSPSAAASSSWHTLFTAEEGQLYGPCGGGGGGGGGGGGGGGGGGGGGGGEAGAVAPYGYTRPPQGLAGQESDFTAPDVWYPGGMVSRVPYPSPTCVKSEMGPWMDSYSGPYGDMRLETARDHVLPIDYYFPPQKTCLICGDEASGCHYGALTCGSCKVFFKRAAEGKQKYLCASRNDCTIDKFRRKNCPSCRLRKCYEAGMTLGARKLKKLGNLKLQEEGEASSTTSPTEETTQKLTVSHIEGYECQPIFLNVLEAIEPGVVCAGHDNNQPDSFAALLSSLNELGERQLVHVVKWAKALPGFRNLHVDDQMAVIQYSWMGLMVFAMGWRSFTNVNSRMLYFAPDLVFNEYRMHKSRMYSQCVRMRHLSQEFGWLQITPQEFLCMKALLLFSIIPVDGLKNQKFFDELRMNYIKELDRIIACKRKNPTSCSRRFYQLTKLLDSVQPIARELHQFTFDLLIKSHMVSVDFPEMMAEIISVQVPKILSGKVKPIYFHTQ
Briefly: VCAP AR Degradation Assay. The format is cell-based. Conditions: VCaP cells, 24 h, AR ELISA; for DC50: concentration of compound when AR level = 50% of DMSO control; for Y: lowest measured AR level normalized to DMSO control (AR degradation efficiency). As for the experimental part:
VCAP AR Degradation Assay. Test compounds were pre-dispensed into a Corning CellBind 96-well clear bottom plate (Cat #3300) using an acoustic dispenser to make a 10-point concentration series at 1:3 dilution for each compound. The final top concentration of each compound was 5 μM. DMSO at a final concentration of 0.1% was used as a control. VCaP cells cultured in DMEM with 8% fetal bovine serum (FBS) were seeded at 50K cells per well in a 200 μL volume into the compound plate and incubated at 37° C. in a CO2 incubator for 24 h. The medium was carefully removed from the cells and the plate was placed on ice. One hundred μL of ice-cold 1× cell lysis buffer from Cell Signaling Technologies (Cat #9803) was added to each well of the cells and the plate was incubated at 4° C. on a shaker for 1 h. Fifteen μL of cell lysate was used for AR ELISA detection using a PathScan Total Sandwich AR ELISA kit (Cell Signaling Technology, Cat #12580). AR levels in compound-treated wells were normalized to that of DMSO control and expressed as percent of control (PoC) (y). A Four Parameter Logistic Model (Sigmoidal Dose-Response Model) was used to determine the compound's DC50, and EC50, using the following equation: […]
The lowest measured AR level normalized to DMSO control in response to compound treatment, termed Y value, was used to characterize the compound-mediated AR degradation efficiency.

`C[C@@H]1CN(CCO[C@H]2CC[C@H](N3C(=S)N(c4ccc(C#N)c(C(F)(F)F)c4)C(=O)C3(C)C)CC2)C[C@H](C)N1CCOc1ccc(N2CCC(=O)NC2=O)cn1` [Cmpd 11, 4-(3-(trans-4-(2-((3R,5S)-4-(2-((5-(2,4-Dioxotetrahydropyrimidin-1(2H)-yl)pyridin-2-yl)oxy)ethyl)-3,5-dimethylpiperazin-1-yl)ethoxy)cyclohexyl)-4,4-dimethyl-5-oxo-2-thioxoimidazolidin-1-yl)-2-(trifluoromethyl)benzonitrile hydrochloride]: the DC50 is over 0.2 µM and the Y entry is “*** (40%<Y<80%)”.
The corresponding values for `CC1(C)C(=O)N(c2cnc(C#N)c(C(F)(F)F)c2)C(=S)N1[C@H]1CC[C@H](OCCCN2CCN(CC(=O)Nc3cc(C4CCC(=O)NC4=O)ccn3)[C@@H](C(F)(F)F)C2)CC1` (stereo partly drawn) [Cmpd 25, 2-((R)-4-(3-(((trans)-4-(3-(6-Cyano-5-(trifluoromethyl)pyridin-3-yl)-5,5-dimethyl-4-oxo-2-thioxoimidazolidin-1-yl)cyclohexyl)oxy)propyl)-2-(trifluoromethyl)piperazin-1-yl)-N-(4-(2,6-dioxopiperidin-3-yl)pyridin-2-yl)acetamide] are at most 0.005 µM and “* (0<Y≤20%)”.
The like results for `C[C@@H]1CN(CCO[C@H]2CC[C@H](N3C(=S)N(c4ccc(C#N)c(Cl)c4)C(=O)C3(C)C)CC2)C[C@H](C)N1CC(=O)Nc1cc(C2CCC(=O)NC2=O)ccn1` (stereo partly drawn) [Cmpd 4, 2-((2R,6S)-4-(2-((trans-4-(3-(3-Chloro-4-cyanophenyl)-5,5-dimethyl-4-oxo-2-thioxoimidazolidin-1-yl)cyclohexyl)oxy)ethyl)-2,6-dimethylpiperazin-1-yl)-N-(4-(2,6-dioxopiperidin-3-yl)pyridin-2-yl)acetamide hydrochloride] were, in that order, 0.005 to 0.05 µM and “** (20%<Y≤40%)”.
In the case of `C[C@@H]1CN(CCCC[C@H]2CC[C@H](N3C(=S)N(c4ccc(C#N)c(C(F)(F)F)c4)C(=O)C3(C)C)CC2)C[C@H](C)N1CC(=O)Nc1cc(N2CCC(=O)NC2=O)ccn1` [Cmpd 17, 2-((2R,6S)-4-(4-((trans)-4-(3-(4-Cyano-3-(trifluoromethyl)phenyl)-5,5-dimethyl-4-oxo-2-thioxoimidazolidin-1-yl)cyclohexyl)butyl)-2,6-dimethylpiperazin-1-yl)-N-(4-(2,4-dioxotetrahydropyrimidin-1(2H)-yl)pyridin-2-yl)acetamide], the DC50 was in the range of 0.005 to 0.05 µM and the Y result is on record as “** (20%<Y≤40%)”.
Consider `C[C@@H]1CN(CCO[C@H]2CC[C@H](N3C(=S)N(c4ccc(C#N)c(C(F)(F)F)c4)C(=O)C3(C)C)CC2)C[C@H](C)N1CCOc1cc(C2CCC(=O)NC2=O)ccn1` (stereo partly drawn) [Cmpd 15, 4-(3-(trans-4-(2-((3R,5S)-4-(2-((4-(2,6-Dioxopiperidin-3-yl)pyridin-2-yl)oxy)ethyl)-3,5-dimethylpiperazin-1-yl)ethoxy)cyclohexyl)-4,4-dimethyl-5-oxo-2-thioxoimidazolidin-1-yl)-2-(trifluoromethyl)benzonitrile hydrochloride], for which the 50% degradation concentration (DC50) was 0.005 to 0.05 µM and the Y result is reported as “*** (40%<Y<80%)”.
The like results for `C[C@@H]1CN(CCCO[C@H]2CC[C@H](N3C(=S)N(c4ccc(C#N)c(C(F)(F)F)c4)C(=O)C3(C)C)CC2)C[C@H](C)N1CC(=O)Nc1ccc(C2CCC(=O)NC2=O)cn1` (stereo partly drawn) [Cmpd 10, 2-((2R,6S)-4-(3-((trans-4-(3-(4-Cyano-3-(trifluoromethyl)phenyl)-5,5-dimethyl-4-oxo-2-thioxoimidazolidin-1-yl)cyclohexyl)oxy)propyl)-2,6-dimethylpiperazin-1-yl)-N-(5-(2,6-dioxopiperidin-3-yl)pyridin-2-yl)acetamide hydrochloride] were, in that order, over 0.2 µM and “*** (40%<Y<80%)”.
Take `CC1(C)C(=O)N(c2cnc(C#N)c(C(F)(F)F)c2)C(=S)N1[C@H]1CC[C@H](OCCN2CCN(CC(=O)Nc3cc(C4CCC(=O)NC4=O)ccn3)[C@@H](C(F)(F)F)C2)CC1` (stereo partly drawn) [Cmpd 22, 2-((R)-4-(2-(((trans)-4-(3-(6-Cyano-5-(trifluoromethyl)pyridin-3-yl)-5,5-dimethyl-4-oxo-2-thioxoimidazolidin-1-yl)cyclohexyl)oxy)ethyl)-2-(trifluoromethyl)piperazin-1-yl)-N-(4-(2,6-dioxopiperidin-3-yl)pyridin-2-yl)acetamide]: the 50% degradation concentration (DC50) is at most 0.005 µM and the Y entry is reported as “* (0<Y≤20%)”.
For the compound `C[C@@H]1CN(CCO[C@H]2CC[C@H](N3C(=S)N(c4ccc(C#N)c(C(F)(F)F)c4)C(=O)C3(C)C)CC2)C[C@H](C)N1CC(=O)Nc1cc(C2CCC(=O)NC2=O)ccn1` (stereo partly drawn) [Cmpd 1, 2-((2R,6S)-4-(2-((trans-4-(3-(4-Cyano-3-(trifluoromethyl)phenyl)-5,5-dimethyl-4-oxo-2-thioxoimidazolidin-1-yl)cyclohexyl)oxy)ethyl)-2,6-dimethylpiperazin-1-yl)-N-(4-(2,6-dioxopiperidin-3-yl)pyridin-2-yl)acetamide hydrochloride], the 50% degradation concentration (DC50) lay in the range of 0.005 to 0.05 µM and the Y result is reported as “** (20%<Y≤40%)”.
The like results for `C[C@@H]1CN(CCO[C@H]2CC[C@H](N3C(=S)N(c4ccc(C#N)c(C(F)(F)F)c4)C(=O)C3(C)C)CC2)C[C@H](C)N1CC(=O)Nc1ccc(C2CCC(=O)NC2=O)cn1` (stereo partly drawn) [Cmpd 2, 2-((2R,6S)-4-(2-((trans-4-(3-(4-Cyano-3-(trifluoromethyl)phenyl)-5,5-dimethyl-4-oxo-2-thioxoimidazolidin-1-yl)cyclohexyl)oxy)ethyl)-2,6-dimethylpiperazin-1-yl)-N-(5-(2,6-dioxopiperidin-3-yl)pyridin-2-yl)acetamide hydrochloride] were, in that order, 0.005 to 0.05 µM and “** (20%<Y≤40%)”.
In the case of `C[C@@H]1CN(CCCO[C@H]2CC[C@H](N3C(=S)N(c4ccc(C#N)c(C(F)(F)F)c4)C(=O)C3(C)C)CC2)C[C@H](C)N1CC(=O)Nc1cc(N2CCC(=O)NC2=O)ccn1` (single isomer, unassigned) [Cmpd 7, hydrochloride], the DC50 is over 0.2 µM and the Y entry is recorded as “*** (40%<Y<80%)”.
Take `C[C@@H]1CN(CCCC[C@H]2CC[C@H](N3C(=S)N(c4ccc(C#N)c(C(F)(F)F)c4)C(=O)C3(C)C)CC2)C[C@H](C)N1CC(=O)Nc1ccc(C2CCC(=O)NC2=O)cn1` (stereo partly drawn) [Cmpd 19, 2-((2R,6S)-4-(4-((trans)-4-(3-(4-Cyano-3-(trifluoromethyl)phenyl)-5,5-dimethyl-4-oxo-2-thioxoimidazolidin-1-yl)cyclohexyl)butyl)-2,6-dimethylpiperazin-1-yl)-N-(5-(2,6-dioxopiperidin-3-yl)pyridin-2-yl)acetamide]: the half-maximal degradation concentration (DC50) was at most 0.005 µM and the Y entry was “* (0<Y≤20%)”.
The like results for `CC1(C)C(=O)N(c2ccc(C#N)c(C(F)(F)F)c2)C(=S)N1[C@H]1CC[C@H](CCCN2CCN(CC(=O)Nc3cc(C4CCC(=O)NC4=O)ccn3)[C@@H](C(F)(F)F)C2)CC1` (stereo partly drawn) [Cmpd 20, 2-((R)-4-(3-((trans)-4-(3-(4-Cyano-3-(trifluoromethyl)phenyl)-5,5-dimethyl-4-oxo-2-thioxoimidazolidin-1-yl)cyclohexyl)propyl)-2-(trifluoromethyl)piperazin-1-yl)-N-(4-(2,6-dioxopiperidin-3-yl)pyridin-2-yl)acetamide] were, in that order, 0.005 to 0.05 µM and “** (20%<Y≤40%)”.
